Data reported in ChEMBL document CHEMBL4152300, “Discovery of the selective and efficacious inhibitors of FLT3 mutations” (Eur J Med Chem, 2018).

Experiments:
[1] = molecular target: T1, Receptor-type tyrosine-protein kinase FLT3 (Homo sapiens, UniProt P36888)
T1 sequence (P36888 whole entry): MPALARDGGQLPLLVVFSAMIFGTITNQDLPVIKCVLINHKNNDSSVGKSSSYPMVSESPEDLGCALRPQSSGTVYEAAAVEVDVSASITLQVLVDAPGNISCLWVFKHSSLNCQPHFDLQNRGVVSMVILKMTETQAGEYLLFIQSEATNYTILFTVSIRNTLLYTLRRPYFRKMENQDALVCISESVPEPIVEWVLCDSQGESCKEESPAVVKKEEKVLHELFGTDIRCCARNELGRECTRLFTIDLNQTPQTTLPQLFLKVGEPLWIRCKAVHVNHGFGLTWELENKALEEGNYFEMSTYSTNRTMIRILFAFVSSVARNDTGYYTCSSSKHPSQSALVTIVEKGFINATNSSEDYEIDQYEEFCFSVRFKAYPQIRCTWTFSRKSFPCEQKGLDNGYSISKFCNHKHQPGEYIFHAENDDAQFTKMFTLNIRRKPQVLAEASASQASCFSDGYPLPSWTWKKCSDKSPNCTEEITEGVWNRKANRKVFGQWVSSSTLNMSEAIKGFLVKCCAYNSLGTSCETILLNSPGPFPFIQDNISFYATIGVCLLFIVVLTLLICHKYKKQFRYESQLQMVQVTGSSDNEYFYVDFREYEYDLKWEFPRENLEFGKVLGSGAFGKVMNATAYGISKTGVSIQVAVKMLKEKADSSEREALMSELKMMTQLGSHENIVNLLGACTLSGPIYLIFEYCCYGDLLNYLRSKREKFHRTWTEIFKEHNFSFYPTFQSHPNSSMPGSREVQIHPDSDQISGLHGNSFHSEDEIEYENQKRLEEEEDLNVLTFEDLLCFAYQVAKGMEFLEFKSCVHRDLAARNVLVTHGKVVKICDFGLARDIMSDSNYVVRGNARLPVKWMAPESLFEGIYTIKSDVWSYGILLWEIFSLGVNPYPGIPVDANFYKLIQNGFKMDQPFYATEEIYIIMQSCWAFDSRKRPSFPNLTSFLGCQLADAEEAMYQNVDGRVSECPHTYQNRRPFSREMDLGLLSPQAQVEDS
Description: Inhibition of human FLT3 by Hotspot assay

[2] = system: K562; test: Growth inhibition of FLT3 null human K562 cells after 72 hrs by Cell-Titer Glo assay; assay type: functional, cell-based; details: K562, 72 h
[3] = molecular target: T2, Receptor-type tyrosine-protein kinase FLT3 (Homo sapiens, UniProt P36888); test: Inhibition of human FLT3 R595_E596 mutant by Hotspot assay
[4] = Half life in human liver microsomes preincubated for 5 mins followed by NADPH addition by LC-MS/MS analysis; assay type: ADME, microsome
[5] = molecular target: Vascular endothelial growth factor receptor 1 (Homo sapiens, UniProt P17948); test: Inhibition of human FLT1 by Hotspot assay
[6] = Drug uptake in human liver microsomes up to 60 mins by LC-MS/MS analysis; assay type: ADME, microsome; details: 1 h
[7] = system: MV4-11; test: Induction of apoptosis in human MV4-11 cells assessed as early apoptotic cells at 0.2 uM after 24 hrs by Annexin V-FITC/propidium iodide staining based flow cytometry (reference value: 0%); assay type: functional
[8] = molecular target: T2, Receptor-type tyrosine-protein kinase FLT3; test: Inhibition of FLT3 phosphorylation at Tyr589/591 residues in human MV4-11 cells after 4 hrs by Western blot analysis; assay type: cell-based
[9] = system: MV4-11; test: Induction of apoptosis in human MV4-11 cells assessed as live cells at 0.5 uM after 24 hrs by Annexin V-FITC/propidium iodide staining based flow cytometry (reference value: 100%); assay type: functional
[10] = Intrinsic clearance in human liver microsomes preincubated for 5 mins followed by NADPH addition by LC-MS/MS analysis; assay type: ADME, microsome; details: read-out: CLH
[11] = system: MV4-11; test: Induction of apoptosis in human MV4-11 cells assessed as necrotic cells at 0.2 uM after 24 hrs by Annexin V-FITC/propidium iodide staining based flow cytometry (reference value: 0%); assay type: functional
[12] = molecular target: T2, Receptor-type tyrosine-protein kinase FLT3; test: Inhibition of FLT3 in human MV4-11 cells assessed as reduction in AKT phosphorylation at Ser473 residue after 4 hrs by Western blot analysis; assay type: cell-based
[13] = system: MV4-11; test: Induction of apoptosis in human MV4-11 cells assessed as late apoptotic cells at 0.5 uM after 24 hrs by Annexin V-FITC/propidium iodide staining based flow cytometry (reference value: 0%); assay type: functional
[14] = molecular target: T2, Receptor-type tyrosine-protein kinase FLT3; test: Inhibition of FLT3 in human MV4-11 cells assessed as reduction in STAT5 phosphorylation at Tyr694 residue after 4 hrs by Western blot analysis; assay type: cell-based
[15] = system: MV4-11; test: Induction of apoptosis in human MV4-11 cells assessed as live cells at 0.2 uM after 24 hrs by Annexin V-FITC/propidium iodide staining based flow cytometry (reference value: 100%); assay type: functional
[16] = molecular target: Vascular endothelial growth factor receptor 2 (Homo sapiens, UniProt P35968); test: Inhibition of human KDR at 0.123 uM by Hotspot assay relative to control
[17] = system: MV4-11; test: Induction of apoptosis in human MV4-11 cells after 24 hrs by Annexin V-FITC/propidium iodide staining based flow cytometry; assay type: functional, cell-based
[18] = molecular target: Receptor-type tyrosine-protein kinase FLT3 (Homo sapiens, UniProt P36888, D835V/ITD); test: Binding affinity to human FLT3 ITD/D835V double mutant expressed in bacterial expression system by Kinomescan method
[19] = molecular target: T2, Receptor-type tyrosine-protein kinase FLT3; test: Inhibition of human FLT3 Y591-V592 mutant by Hotspot assay
[20] = molecular target: CDK2 (cyclin-dependent kinase 2) (Homo sapiens, UniProt P24941); test: Inhibition of CDK2 (unknown origin) assessed as residual activity at 0.123 uM by Hotspot assay relative to control; details: CDK2 enzyme (unknown origin), read-out: Activity
[21] = system: MV4-11; test: Induction of apoptosis in human MV4-11 cells assessed as necrotic cells at 0.5 uM after 24 hrs by Annexin V-FITC/propidium iodide staining based flow cytometry (reference value: 0%); assay type: functional
[22] = organism: Homo sapiens; test: Selectivity ratio of IC50 for human FLT4 to IC50 for human FLT3
[23] = molecular target: Receptor-type tyrosine-protein kinase FLT3 (Homo sapiens, UniProt P36888, ITD); test: Inhibition of human FLT3 ITD-NPOS mutant by Hotspot assay
[24] = molecular target: T3, Receptor-type tyrosine-protein kinase FLT3 (Homo sapiens, UniProt P36888, D835Y); test: Binding affinity to human FLT3 D835Y mutant (Q580 to Y969 residues) expressed in bacterial expression system by Kinomescan method
[25] = molecular target: Cyclin-dependent kinase 6 (Homo sapiens, UniProt Q00534); test: Inhibition of CDK6 (unknown origin) assessed as residual activity at 0.123 uM by Hotspot assay relative to control
[26] = molecular target: T2, Receptor-type tyrosine-protein kinase FLT3; test: Inhibition of human FLT3 F594_R595insR mutant by Hotspot assay
[27] = molecular target: T3, Receptor-type tyrosine-protein kinase FLT3; test: Inhibition of human FLT3 D835Y mutant by Hotspot assay
[28] = molecular target: T2, Receptor-type tyrosine-protein kinase FLT3; test: Inhibition of FLT3 in human MV4-11 cells assessed as reduction in ERK1/2 phosphorylation at Thr202/Tyr204 residues after 4 hrs by Western blot analysis; assay type: cell-based

Cyclin-dependent kinase 6, sequence (Q00534 whole entry): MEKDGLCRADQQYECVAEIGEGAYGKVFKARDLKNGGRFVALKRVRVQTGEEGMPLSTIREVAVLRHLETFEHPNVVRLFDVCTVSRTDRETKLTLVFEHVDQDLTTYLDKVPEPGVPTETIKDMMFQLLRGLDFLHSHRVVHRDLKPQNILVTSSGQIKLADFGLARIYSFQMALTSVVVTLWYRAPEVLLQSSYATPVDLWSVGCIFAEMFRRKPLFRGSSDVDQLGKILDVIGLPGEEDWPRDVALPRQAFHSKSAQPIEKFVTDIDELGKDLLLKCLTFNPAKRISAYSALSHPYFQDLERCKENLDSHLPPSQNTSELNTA
Vascular endothelial growth factor receptor 2, sequence (P35968 whole entry): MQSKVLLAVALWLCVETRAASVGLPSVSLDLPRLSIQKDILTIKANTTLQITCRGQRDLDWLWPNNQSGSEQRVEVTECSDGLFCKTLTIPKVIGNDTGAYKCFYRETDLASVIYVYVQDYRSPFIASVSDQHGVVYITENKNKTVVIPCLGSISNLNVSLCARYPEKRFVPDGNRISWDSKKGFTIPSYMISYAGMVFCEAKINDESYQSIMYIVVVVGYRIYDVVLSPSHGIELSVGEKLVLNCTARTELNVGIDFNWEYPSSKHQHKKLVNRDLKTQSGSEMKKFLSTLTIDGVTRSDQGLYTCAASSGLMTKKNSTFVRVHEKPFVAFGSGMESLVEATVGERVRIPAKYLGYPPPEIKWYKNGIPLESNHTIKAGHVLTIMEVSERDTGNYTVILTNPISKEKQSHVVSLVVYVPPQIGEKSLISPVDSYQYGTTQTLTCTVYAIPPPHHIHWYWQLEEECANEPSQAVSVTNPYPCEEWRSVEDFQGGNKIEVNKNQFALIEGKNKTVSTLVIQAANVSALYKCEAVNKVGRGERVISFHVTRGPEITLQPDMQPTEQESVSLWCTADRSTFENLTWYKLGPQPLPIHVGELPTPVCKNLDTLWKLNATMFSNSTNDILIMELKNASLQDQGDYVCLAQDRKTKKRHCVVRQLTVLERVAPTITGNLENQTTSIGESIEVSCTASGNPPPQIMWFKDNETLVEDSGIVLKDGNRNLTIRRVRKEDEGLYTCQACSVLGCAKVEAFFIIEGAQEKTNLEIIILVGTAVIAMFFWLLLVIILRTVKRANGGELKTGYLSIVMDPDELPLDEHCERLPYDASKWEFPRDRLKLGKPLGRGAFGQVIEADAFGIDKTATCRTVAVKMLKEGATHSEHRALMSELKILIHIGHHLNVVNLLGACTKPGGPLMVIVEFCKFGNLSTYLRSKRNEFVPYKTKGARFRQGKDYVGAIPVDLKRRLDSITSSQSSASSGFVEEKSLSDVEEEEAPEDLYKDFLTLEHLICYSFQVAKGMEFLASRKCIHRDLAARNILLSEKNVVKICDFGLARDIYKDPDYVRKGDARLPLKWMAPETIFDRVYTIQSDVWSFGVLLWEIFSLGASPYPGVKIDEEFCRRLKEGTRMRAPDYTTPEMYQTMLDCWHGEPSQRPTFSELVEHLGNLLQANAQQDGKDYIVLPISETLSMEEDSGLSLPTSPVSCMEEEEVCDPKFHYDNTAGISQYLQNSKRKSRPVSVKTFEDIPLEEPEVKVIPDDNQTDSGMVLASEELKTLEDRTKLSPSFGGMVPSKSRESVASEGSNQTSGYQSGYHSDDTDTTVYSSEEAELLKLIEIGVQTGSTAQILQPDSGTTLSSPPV
Vascular endothelial growth factor receptor 1, sequence (P17948 whole entry): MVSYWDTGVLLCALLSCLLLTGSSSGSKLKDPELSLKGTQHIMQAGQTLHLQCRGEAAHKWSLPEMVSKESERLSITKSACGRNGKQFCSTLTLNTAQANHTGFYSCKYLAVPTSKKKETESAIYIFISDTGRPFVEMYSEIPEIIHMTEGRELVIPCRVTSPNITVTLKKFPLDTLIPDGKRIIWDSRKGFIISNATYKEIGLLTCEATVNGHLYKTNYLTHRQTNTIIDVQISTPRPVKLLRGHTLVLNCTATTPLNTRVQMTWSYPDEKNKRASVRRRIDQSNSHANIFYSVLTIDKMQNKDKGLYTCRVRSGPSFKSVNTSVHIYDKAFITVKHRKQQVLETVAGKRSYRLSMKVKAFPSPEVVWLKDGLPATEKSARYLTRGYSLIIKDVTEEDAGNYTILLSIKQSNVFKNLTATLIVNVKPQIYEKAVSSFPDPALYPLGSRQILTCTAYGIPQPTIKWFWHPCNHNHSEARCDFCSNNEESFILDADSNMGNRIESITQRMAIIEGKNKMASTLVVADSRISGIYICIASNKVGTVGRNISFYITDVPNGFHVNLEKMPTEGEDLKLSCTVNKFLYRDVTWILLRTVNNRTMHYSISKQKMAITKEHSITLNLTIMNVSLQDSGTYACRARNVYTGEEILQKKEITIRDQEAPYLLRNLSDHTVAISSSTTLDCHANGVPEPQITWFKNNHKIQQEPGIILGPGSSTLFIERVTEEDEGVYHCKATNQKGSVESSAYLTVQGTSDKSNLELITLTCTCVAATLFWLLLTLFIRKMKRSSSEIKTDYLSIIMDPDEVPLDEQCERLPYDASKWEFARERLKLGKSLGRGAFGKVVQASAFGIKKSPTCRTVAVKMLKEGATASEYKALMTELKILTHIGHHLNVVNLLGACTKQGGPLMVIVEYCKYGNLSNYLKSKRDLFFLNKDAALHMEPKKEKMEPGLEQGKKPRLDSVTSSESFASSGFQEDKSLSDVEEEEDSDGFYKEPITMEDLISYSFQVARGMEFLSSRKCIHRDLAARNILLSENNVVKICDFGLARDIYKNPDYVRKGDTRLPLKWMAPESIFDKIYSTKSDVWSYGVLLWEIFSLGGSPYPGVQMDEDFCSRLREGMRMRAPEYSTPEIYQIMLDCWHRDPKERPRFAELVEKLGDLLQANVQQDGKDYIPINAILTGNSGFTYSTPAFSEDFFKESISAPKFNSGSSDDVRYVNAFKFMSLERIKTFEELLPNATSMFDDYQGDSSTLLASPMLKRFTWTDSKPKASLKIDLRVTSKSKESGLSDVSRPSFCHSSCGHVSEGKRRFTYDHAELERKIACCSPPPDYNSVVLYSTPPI

## Cc1nc2c(c(Nc3c[nH]nc3C(=O)Nc3ccc(N4CCNCC4)cc3)n1)CCC2
[1]
  IC50: 0.19 to 0.21 nM
[2]
  IC50: 11600 nM
[3]
  IC50: 8.74 nM
[4]
  half-life: 2.45 h
[5]
  IC50: 220 nM
[6]
  Drug uptake: 28.7%
[7]
  Activity: 23%
[8]
  inhibition: Dose-dependent effect
[9]
  Activity: 29%
[10]
  microsomal CLint: 9.4 µL/min/mg
[11]
  Activity: 1.92%
[12]
  inhibition: Dose-dependent effect
[13]
  Activity: 9.77%
[14]
  inhibition: Dose-dependent effect
[15]
  Activity: 62.2%
[16]
  inhibition: > 50%
[17]
  Activity: Dose-dependent effect
[18]
  Kd: 3.7 nM
[19]
  IC50: 15.3 nM
[20]
  activity at 0.123 µM: 86.3%
[21]
  Activity: 0.83%
[22]
  Ratio IC50: 120
[23]
  IC50: 14.9 nM
[24]
  Kd: 5.33 nM
[25]
  Activity: 91.2%
[26]
  IC50: 6.97 nM
[27]
  IC50: 1.79 nM
[28]
  inhibition: Dose-dependent effect
